Measured values: PMC3820767, “Turning Defense into Offense: Defensin Mimetics as Novel Antibiotics Targeting Lipid II” (PLoS Pathogens, 2013)
pIC50, pKd: −log10 of the molar value. Converted amounts (≈) assume the structure as drawn. Like-named read-outs stand apart in the source and are kept apart here.

Tests used:
[1] = Surface Plasmon Resonance binding to immobilized 3-Lipid II; conditions: SPR; for Binding on Lipid II?: Table S3, initial determination at 10 µM; for pKd: immobilized 3-Lipid II
Procedure: Surface Plasmon Resonance binding experiments were carried out on a BIAcore T100 system (BIAcore Inc., Piscataway, NY) at 25°C. The assay buffer was 10 mM HEPES, 150 mM NaCl, 0.05% surfactant P20, pH 7.4 (±3 mM EDTA) supplemented with 10% DMSO. […] For initial determination of binding, defensin mimetics were introduced into the flow-cells (30 µl/min) in the running buffer at 10 µM. Resonance signals were corrected for nonspecific binding by subtracting the background of the control flow-cell. After each analysis, the sensor chip surfaces were regenerated with 50 mM NaOH for 30 s at a flow rate 100 µl/min, and equilibrated with the buffer prior to next injection. For binding kinetics studies, binding isotherms were analyzed with manufacturer-supplied software for BIAcore T100.

Jurkat = assay: Cytotoxicity by MTT assay; format: cell-based, human
[2] = system: Streptococcus pneumonia (PRSP) MMX884; assay: Broth microdilution susceptibility testing (CLSI); format: cell-based, Streptococcus pneumoniae
Procedure: (§1) The antibacterial activity of defensin mimetics against Staphylococcus aureus ATCC 29213 and Escherichia coli 25922 was carried out in a 96-well turbidimetric assay essentially as described previously with the following modifications: bacteria were exposed for 30 min to compounds in 10 mM phosphate buffer containing 5% DMSO prior to addition of 2× Muller-Hinton medium. Bacterial growth was monitored for 12 hours and data were analyzed as described. Determination of MICs was performed by Micromyx, LLC (Kalamazoo, Michigan) according to CLSI standards.

Caco-2 = assay: Cytotoxicity by MTT assay; format: cell-based, human
[3] = system: Escherichia coli MMX102-ATCC 25922; assay: Broth microdilution susceptibility testing (CLSI); format: cell-based
Procedure: as §1

[4] = system: Staphylococcus aureus (MRSA) MMX757; assay: Broth microdilution susceptibility testing (CLSI); format: cell-based
Procedure: as §1

[5] = system: Enterococcus faecalis (VRE) MMX848; assay: Broth microdilution susceptibility testing (CLSI); format: cell-based
Procedure: as §1

[6] = system: Streptococcus pneumoniae MMX1195-ATCC 49619; assay: Broth microdilution susceptibility testing (CLSI); format: cell-based
Procedure: as §1

[7] = system: Pseudomonas aeruginosa MMX103-ATCC 27853; assay: Broth microdilution susceptibility testing (CLSI); format: cell-based
Procedure: as §1

[8] = system: Staphylococcus aureus MMX100-ATCC 29213; assay: Broth microdilution susceptibility testing (CLSI); format: cell-based
Procedure: as §1

[9] = system: Enterococcus faecalis MMX101-ATCC 29212; assay: Broth microdilution susceptibility testing (CLSI); format: cell-based
Procedure: as §1

[10] = system: Staphylococcus aureus ATCC 29213; assay: Antibacterial killing, 96-well turbidimetric (modified vCC) assay; format: cell-based; conditions: for active against S.aureus (IC100%): Table S3, concentration at which 100% killing occurred, no bacterial regrowth, No = not active; for Bacterial Killing S. aureus: concentration resulting in 100% killing after 30 min exposure, modified vCC assay
Procedure: as §1

[11] = system: Escherichia coli ATCC 25922; assay: as above; format: cell-based; conditions: for active against E.coli (IC100%): Table S3, concentration at which 100% killing occurred, no bacterial regrowth, No = not active; for Bacterial Killing E. coli: concentration resulting in 100% killing after 30 min exposure, modified vCC assay
Procedure: as §1

SMILES: CN(C)c1ccc(/C=C/c2cc(C(C)(C)C)[o+]c(C(C)(C)C)c2)cc1 [Compound 1493-0289, 2,6-di-tert-butyl-4-[(E)-2-[4-(dimethylamino)phenyl]ethenyl]-1$l^4-pyran-1-ylium]
- Binding on Lipid II? [1]: Yes
- pKd [1]: 5.37
- pIC50 (Jurkat): 4.38
- MIC Streptococcus pneumonia (PRSP) 884-NA [2]: 16 µg/mL
- pIC50 (Caco-2): 5.17
- MIC Escherichia coli 102-25922 [3]: >8 µg/mL
- MIC Staphylococcus aureus (MRSA) 757-NA [4]: 2 µg/mL
- MIC Enterococcus faecalis (VRE) 848-NA [5]: 4 µg/mL
- MIC Streptococcus pneumoniae 1195-49619 [6]: 16 µg/mL
- MIC Pseudomonas aeruginosa 103-27853 [7]: >8 µg/mL
- MIC Staphylococcus aureus 100-29213 [8]: 1 µg/mL
- MIC Enterococcus faecalis 101-29212 [9]: 2 µg/mL
- active against S.aureus (IC100%) [10]: 3,9 µM
- Bacterial Killing S. aureus [10]: 3.9 µM
- active against E.coli (IC100%) [11]: 125 µM
- Bacterial Killing E. coli [11]: 125 µM

SMILES: Oc1ccccc1Oc1c(F)c(F)c(-c2c(F)c(F)c(Oc3ccccc3O)c(F)c2F)c(F)c1F [Compound 1611-0203, 2-{2,3,5,6-tetrafluoro-4-[2,3,5,6-tetrafluoro-4-(2-hydroxyphenoxy)phenyl]phenoxy}phenol]
- pKd [1]: 4.22
- pIC50 (Jurkat; concentration resulting in 50% cell survival, MTT, 4 h, read-out: Cytotoxicity (C50%) Jurkat): 4.20
- MIC Streptococcus pneumonia (PRSP) 884-NA [2]: >16 µg/mL
- pIC50 (Caco-2; concentration resulting in 50% cell survival, MTT, 24 h, read-out: Cytotoxicity (C50%) Caco-2): 5.38
- MIC Escherichia coli 102-25922 [3]: >4 µg/mL
- MIC Staphylococcus aureus (MRSA) 757-NA [4]: 2 µg/mL (≈ 3.89 µM)
- MIC Enterococcus faecalis (VRE) 848-NA [5]: 1 µg/mL (≈ 1.94 µM)
- MIC Streptococcus pneumoniae 1195-49619 [6]: >16 µg/mL
- MIC Pseudomonas aeruginosa 103-27853 [7]: >4 µg/mL
- MIC Staphylococcus aureus 100-29213 [8]: 2 µg/mL (≈ 3.89 µM)
- MIC Enterococcus faecalis 101-29212 [9]: 1 µg/mL (≈ 1.94 µM)
- active against S.aureus (IC100%) [10]: 3,9 µM
- Bacterial Killing S. aureus [10]: 3.9 µM
- Bacterial Killing E. coli [11]: >500 µM

SMILES: CC[n+]1c(/C=C2C=C(/C=C/N(C)c3ccccc3)CC(C)(C)C/2)sc2ccccc21 [Compound 4090-1978, 2-{[(1E)-5,5-dimethyl-3-[(E)-2-[methyl(phenyl)amino]ethenyl]cyclohex-2-en-1-ylidene]methyl}-3-ethyl-1,3-benzothiazol-3-ium]
- Binding on Lipid II? [1]: No
- pIC50 (Jurkat): 4.06
- MIC Streptococcus pneumonia (PRSP) 884-NA [2]: >8 µg/mL
- pIC50 (Caco-2): 4.78
- MIC Escherichia coli 102-25922 [3]: 64 µg/mL
- MIC Staphylococcus aureus (MRSA) 757-NA [4]: 2 µg/mL
- MIC Enterococcus faecalis (VRE) 848-NA [5]: 16 µg/mL
- MIC Streptococcus pneumoniae 1195-49619 [6]: >8 µg/mL
- MIC Pseudomonas aeruginosa 103-27853 [7]: >64 µg/mL
- MIC Staphylococcus aureus 100-29213 [8]: 2 µg/mL
- MIC Enterococcus faecalis 101-29212 [9]: 16 µg/mL
- active against S.aureus (IC100%) [10]: 15,625 µM
- Bacterial Killing S. aureus [10]: 15.6 µM
- active against E.coli (IC100%) [11]: 62,5 µM
- Bacterial Killing E. coli [11]: 62.5 µM

SMILES: Oc1ccc2ccccc2c1C(c1ccc(Cl)cc1)c1c(O)ccc2ccccc12 [Compound 363003]
- Binding on Lipid II? [1]: Yes
- pKd [1]: 4.40
- pIC50 (Jurkat): 4.90
- MIC Streptococcus pneumonia (PRSP) 884-NA [2]: 16 µg/mL (≈ 38.9 µM)
- pIC50 (Caco-2): 5.46
- MIC Escherichia coli 102-25922 [3]: >32 µg/mL
- MIC Staphylococcus aureus (MRSA) 757-NA [4]: 1 µg/mL (≈ 2.43 µM)
- MIC Enterococcus faecalis (VRE) 848-NA [5]: 1 µg/mL (≈ 2.43 µM)
- MIC Streptococcus pneumoniae 1195-49619 [6]: 8 µg/mL (≈ 19.5 µM)
- MIC Pseudomonas aeruginosa 103-27853 [7]: >32 µg/mL
- MIC Staphylococcus aureus 100-29213 [8]: 1 µg/mL (≈ 2.43 µM)
- MIC Enterococcus faecalis 101-29212 [9]: 1 µg/mL (≈ 2.43 µM)
- active against S.aureus (IC100%) [10]: 3,9 µM
- Bacterial Killing S. aureus [10]: 3.9 µM
- active against E.coli (IC100%) [11]: No
- Bacterial Killing E. coli [11]: >500 µM

SMILES: CC(=O)NC[C@H]1CN(c2ccc(N3CCOCC3)c(F)c2)C(=O)O1 [Linezolid, reference compound]
- MIC ([2]; Streptococcus pneumoniae, PRSP, read-out: MIC Streptococcus pneumonia (PRSP) 884-NA): 2 µg/mL (≈ 5.93 µM)
- MIC ([3]; Escherichia coli, ATCC25922, read-out: MIC Escherichia coli 102-25922): > 64 µg/mL
- MIC ([4]; Staphylococcus aureus, MRSA, read-out: MIC Staphylococcus aureus (MRSA) 757-NA): 4 µg/mL (≈ 11.9 µM)
- MIC ([5]; Enterococcus faecalis, VRE, read-out: MIC Enterococcus faecalis (VRE) 848-NA): 2 µg/mL (≈ 5.93 µM)
- MIC ([6]; Streptococcus pneumoniae, ATCC49619, read-out: MIC Streptococcus pneumoniae 1195-49619): 2 µg/mL (≈ 5.93 µM)
- MIC ([7]; Pseudomonas aeruginosa, ATCC27853, read-out: MIC Pseudomonas aeruginosa 103-27853): > 64 µg/mL
- MIC ([8]; Staphylococcus aureus, ATCC29213, read-out: MIC Staphylococcus aureus 100-29213): 4 µg/mL (≈ 11.9 µM)
- MIC ([9]; Enterococcus faecalis, ATCC29212, read-out: MIC Enterococcus faecalis 101-29212): 2 µg/mL (≈ 5.93 µM)

SMILES: CCn1c2ccccc2c2cc(N/C=C(\C#N)c3nc(-c4ccc(C)cc4C)cs3)ccc21 [STK537076, (2E)-2-[4-(2,4-dimethylphenyl)-1,3-thiazol-2-yl]-3-[(9-ethyl-9H-carbazol-3-yl)amino]prop-2-enenitrile]
- Binding on Lipid II? [1]: No
- pIC50 (Caco-2): 3.62
- active against S.aureus (IC100%) [10]: No
- active against E.coli (IC100%) [11]: No

SMILES: CCN1/C(=C/C=C/C=C/C2=CC(=C/c3sc4ccccc4[n+]3CC)/CC(C)(C)C2)Sc2ccccc21 [STK792971, 3-ethyl-2-[(E)-{3-[(1E,3E,5Z)-5-(3-ethyl-1,3-benzothiazol-2(3H)-ylidene)penta-1,3-dien-1-yl]-5,5-dimethylcyclohex-2-en-1-ylidene}methyl]-1,3-benzothiazol-3-ium]
- Binding on Lipid II? [1]: No
- cytotoxic for Caco II (C50% survival) (Caco-2): No
- active against S.aureus (IC100%) [10]: 62,5 µM
- active against E.coli (IC100%) [11]: No

SMILES: CC[n+]1c(/C=C/C=C/N(C(C)=O)c2ccccc2)sc2cc(OC)ccc21 [STK874226, 2-{(1E,3E)-4-[acetyl(phenyl)amino]buta-1,3-dien-1-yl}-3-ethyl-6-methoxy-1,3-benzothiazol-3-ium]
- Binding on Lipid II? [1]: No
- cytotoxic for Caco II (C50% survival) (Caco-2): No
- active against S.aureus (IC100%) [10]: 125 µM
- active against E.coli (IC100%) [11]: 250 µM

SMILES: COc1ccc(-c2cn(CC(=O)N(c3ccccc3)C(C)C)c3[n+]2CCC3)cc1 [STL050072, 3-(4-methoxyphenyl)-1-{2-oxo-2-[phenyl(propan-2-yl)amino]ethyl}-1,5,6,7-tetrahydropyrrolo[1,2-a]imidazol-4-ium]
- Binding on Lipid II? [1]: No
- pIC50 (Caco-2): 3.47
- active against S.aureus (IC100%) [10]: No
- active against E.coli (IC100%) [11]: No

SMILES: CN1CCC(N(Cc2ccccc2)C(=O)CCc2ccc3c(c2)n(C)c(=O)n3C)CC1 [SYN22879441, N-Benzyl-3-(1,3-dimethyl-2-oxo-2,3-dihydro-1H-benzoimidazol-5-yl)-N-(1-methyl-piperidin-4-yl)-propionamide]
- Binding on Lipid II? [1]: No
- cytotoxic for Caco II (C50% survival) (Caco-2): No
- active against S.aureus (IC100%) [10]: No
- active against E.coli (IC100%) [11]: No
